{"source": "patent US10011570B2", "about": "“Nucleic acid binding dyes with improved safety” (Biotium, Inc., priority 2013, dated 2018)", "origin": "cited, not measured here", "test_system": "cellular mutation caused by UV light or other known mutagens", "settings": "cited from earlier work", "data": [{"compound": "CCCN(CCCN(C)C)c1cc(/C=C2/Sc3ccccc3N2C)c2ccccc2[n+]1-c1ccccc1", "note": "[SYBR Green]", "values": [{"measurement": "effect on cellular mutation caused by UV light or other known mutagens", "result": "can worsen cellular mutation"}, {"measurement": "power in worsening mutation relative to ethidium bromide", "result": "~100", "unit": "times"}]}]}
